Results reported in ChEMBL document CHEMBL1201862, “PubChem BioAssay data set” (2004).
Blank lines part the entries; values can stand above or below the compound they belong to. Activity calls are given as the source filed them.

What was measured:
[1] = biological target: T1, Carboxy-terminal domain RNA polymerase II polypeptide A small phosphatase 1 (Homo sapiens, UniProt Q9GZU7); assay: inhibitors of CTDSP1, concentration-response testing, biochemical assay, absorbance-based, actives from ultra-high-throughput screening (AID 540297); format: functional
T1 sequence (Q9GZU7 whole entry): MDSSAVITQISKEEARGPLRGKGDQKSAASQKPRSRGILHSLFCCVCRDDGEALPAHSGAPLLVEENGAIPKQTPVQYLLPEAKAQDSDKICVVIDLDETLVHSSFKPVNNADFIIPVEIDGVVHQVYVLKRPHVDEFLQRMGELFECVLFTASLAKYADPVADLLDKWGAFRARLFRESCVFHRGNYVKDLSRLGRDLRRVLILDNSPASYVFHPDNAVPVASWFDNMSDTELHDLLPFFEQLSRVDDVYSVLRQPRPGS

[2] = biological target: FAD-linked sulfhydryl oxidase ALR (Homo sapiens, UniProt P55789); assay: inhibitors of human ALR sulfhydryl oxidase, dose response, biochemical, H2O2 detection, luminescence, cherry-pick (AID 493248)
FAD-linked sulfhydryl oxidase ALR, sequence (P55789 whole entry): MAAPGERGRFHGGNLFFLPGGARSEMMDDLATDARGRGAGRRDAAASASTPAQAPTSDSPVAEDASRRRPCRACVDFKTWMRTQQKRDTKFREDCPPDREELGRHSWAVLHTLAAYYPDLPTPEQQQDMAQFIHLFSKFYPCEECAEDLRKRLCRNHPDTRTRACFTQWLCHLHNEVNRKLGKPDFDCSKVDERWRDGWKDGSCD

[3] = biological target: Heat shock protein HSP 90-alpha (Homo sapiens, UniProt P07900); format: functional, organism-based
[4] = biological target: T2, Microphthalmia-associated transcription factor (Homo sapiens, UniProt O75030); assay: TRPM1 promoter luciferase signal decrease, dose response, MITF inhibitor project, cell-based, SK-MEL-5, cherry-picked, set 3 (AID 493073); format: functional
T2 sequence (O75030 whole entry): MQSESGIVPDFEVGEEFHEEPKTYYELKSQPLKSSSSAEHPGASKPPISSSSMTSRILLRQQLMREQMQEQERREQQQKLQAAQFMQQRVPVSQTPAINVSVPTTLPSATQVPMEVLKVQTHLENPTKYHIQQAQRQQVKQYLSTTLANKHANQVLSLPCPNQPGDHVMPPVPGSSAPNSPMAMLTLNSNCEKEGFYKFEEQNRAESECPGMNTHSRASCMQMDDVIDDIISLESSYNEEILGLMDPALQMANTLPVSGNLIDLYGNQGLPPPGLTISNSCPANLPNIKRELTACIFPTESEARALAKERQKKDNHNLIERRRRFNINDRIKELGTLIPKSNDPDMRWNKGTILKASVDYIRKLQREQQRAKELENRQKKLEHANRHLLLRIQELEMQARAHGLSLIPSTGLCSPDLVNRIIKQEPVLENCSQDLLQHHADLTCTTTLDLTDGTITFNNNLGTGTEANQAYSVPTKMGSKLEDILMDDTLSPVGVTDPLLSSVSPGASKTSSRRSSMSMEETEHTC

P388/ADR = assay: cells; format: functional; details: Mus musculus
P388 = assay: cells; format: functional; details: Mus musculus

- IC50 [1]: 5.88 µM (active)
SMILES: CCCc1ccc(C(=O)NNC(=O)c2ccc(Br)cc2)cc1

- AC50 [2]: 0.3 µM (active)
SMILES: CCC(C)C(=O)N1CCc2cc(-c3csc(N)n3)ccc21 (configuration not stated)

- IC50 [1]: 14.8 µM (active)
SMILES: CCCCOc1ccc(CNC(=O)NS(=O)(=O)c2ccc(OCC(C)C)cc2)cc1

- AC50 [3]: 7.81 µM (active)
SMILES: CCN(C(=O)C1CCCN(c2nc(-c3ccc(OC)cc3)no2)C1)c1ccc(OC)cc1 (configuration not stated)

- AC50 [4]: 21.2 µM (active)
SMILES: O=C(O)c1cccc(NC(=O)c2cccc(NC(=O)C3CCCO3)c2)c1 (configuration not stated)

- AC50 [3]: 3.9 µM (active)
SMILES: O=C(/C=C/c1ccccc1)CCN1CCCCC1

- AC50 [3]: 0.392 µM (active)
SMILES: O=S(=O)(c1c(F)cccc1F)N(CCc1ccc(F)cc1)C[C@@H](O)COCc1ccccc1

SMILES: CCC(C(C)N1CC(=O)NC(=O)C1)N1CC(=O)NC(=O)C1 (configuration not stated)
- GI50 (P388/ADR): 6.12 µM (inactive)
- GI50 (P388): < 0.0316 µM (active)

- AC50 [2]: 0.109 µM (active)
SMILES: Cc1cc(-c2nnc(S)n2/N=C/C(Cl)=C/c2ccccc2)[nH]n1

- AC50 [2]: 2.59 µM (active)
SMILES: C/C(=N\NC(=O)CCCNc1cccc(C)c1)c1ccncc1

- AC50 [2]: 1.03 µM (active)
SMILES: C/C(=N\Nc1ccc(Cl)cc1)c1ccccn1
